Assay results from ChEMBL document CHEMBL2021783, “Inhibition of cholinesterase activity and amyloid aggregation by berberine-phenyl-benzoheterocyclic and tacrine-phenyl-benzoheterocyclic hybrids” (Bioorg Med Chem, 2012).
The source made the active and inactive calls. The rule behind the calls is not given here.

Key:
[1] = Inhibition of amyloid beta (1 to 42) self aggregation at 20 uM after 48 hrs by thioflavin T fluorescence assay
Acetylcholinesterase = Acetylcholinesterase (Electrophorus electricus, UniProt O42275)
Description: Inhibition of electric eel AChE using acetylcholine as substrate by Ellman's method

Cholinesterase = Cholinesterase (Equus caballus, UniProt P81908)
Description: Inhibition of equine serum BuChE using butyrylcholine as substrate by Ellman's method

[2] = target: Acetylcholinesterase (Electrophorus electricus) (UniProt O42275); assay: Mixed-type inhibition of electric eel AChE using acetylcholine as substrate after 15 mins by Lineweaver-Burk plot analysis
[3] = target: Acetylcholinesterase (Electrophorus electricus) (UniProt O42275); assay: Ratio of IC50 for tarcine to compound for electric eel AChE using acetylcholine as substrate by Ellman's method

Sequence of Cholinesterase (P81908 whole entry): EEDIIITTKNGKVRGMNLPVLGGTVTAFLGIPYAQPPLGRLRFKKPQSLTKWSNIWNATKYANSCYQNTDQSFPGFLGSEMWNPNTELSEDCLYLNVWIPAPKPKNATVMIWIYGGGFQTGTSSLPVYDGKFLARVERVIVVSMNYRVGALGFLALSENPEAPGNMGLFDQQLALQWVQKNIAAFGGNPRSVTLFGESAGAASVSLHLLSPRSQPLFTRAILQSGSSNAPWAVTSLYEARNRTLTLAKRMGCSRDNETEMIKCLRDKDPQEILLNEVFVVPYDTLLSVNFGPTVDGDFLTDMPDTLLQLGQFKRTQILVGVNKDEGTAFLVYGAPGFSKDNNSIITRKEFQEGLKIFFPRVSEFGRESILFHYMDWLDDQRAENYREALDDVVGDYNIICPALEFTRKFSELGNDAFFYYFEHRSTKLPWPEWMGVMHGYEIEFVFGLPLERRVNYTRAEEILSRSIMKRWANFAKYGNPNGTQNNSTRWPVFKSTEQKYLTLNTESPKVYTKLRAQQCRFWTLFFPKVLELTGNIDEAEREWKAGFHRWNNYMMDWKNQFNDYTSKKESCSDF
Sequence of Acetylcholinesterase (O42275 whole entry): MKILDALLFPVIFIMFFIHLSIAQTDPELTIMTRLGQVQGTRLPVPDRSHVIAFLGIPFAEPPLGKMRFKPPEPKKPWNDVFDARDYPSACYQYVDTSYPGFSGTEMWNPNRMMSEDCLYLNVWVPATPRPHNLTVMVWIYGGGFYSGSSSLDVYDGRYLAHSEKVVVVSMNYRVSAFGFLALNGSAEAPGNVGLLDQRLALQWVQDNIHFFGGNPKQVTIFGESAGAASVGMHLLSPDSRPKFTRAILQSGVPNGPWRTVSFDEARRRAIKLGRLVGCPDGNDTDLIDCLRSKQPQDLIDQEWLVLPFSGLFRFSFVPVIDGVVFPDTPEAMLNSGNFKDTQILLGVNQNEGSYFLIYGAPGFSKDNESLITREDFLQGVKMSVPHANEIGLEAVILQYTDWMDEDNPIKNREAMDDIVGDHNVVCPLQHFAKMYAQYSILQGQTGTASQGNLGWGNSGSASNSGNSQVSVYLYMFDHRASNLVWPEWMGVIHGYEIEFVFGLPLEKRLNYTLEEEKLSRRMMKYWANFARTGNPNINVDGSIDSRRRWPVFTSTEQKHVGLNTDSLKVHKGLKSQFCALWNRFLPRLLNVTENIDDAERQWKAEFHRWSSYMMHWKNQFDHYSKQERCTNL
Sequence of Acetylcholinesterase (Electrophorus electricus) (O42275 24-633 limits assumed): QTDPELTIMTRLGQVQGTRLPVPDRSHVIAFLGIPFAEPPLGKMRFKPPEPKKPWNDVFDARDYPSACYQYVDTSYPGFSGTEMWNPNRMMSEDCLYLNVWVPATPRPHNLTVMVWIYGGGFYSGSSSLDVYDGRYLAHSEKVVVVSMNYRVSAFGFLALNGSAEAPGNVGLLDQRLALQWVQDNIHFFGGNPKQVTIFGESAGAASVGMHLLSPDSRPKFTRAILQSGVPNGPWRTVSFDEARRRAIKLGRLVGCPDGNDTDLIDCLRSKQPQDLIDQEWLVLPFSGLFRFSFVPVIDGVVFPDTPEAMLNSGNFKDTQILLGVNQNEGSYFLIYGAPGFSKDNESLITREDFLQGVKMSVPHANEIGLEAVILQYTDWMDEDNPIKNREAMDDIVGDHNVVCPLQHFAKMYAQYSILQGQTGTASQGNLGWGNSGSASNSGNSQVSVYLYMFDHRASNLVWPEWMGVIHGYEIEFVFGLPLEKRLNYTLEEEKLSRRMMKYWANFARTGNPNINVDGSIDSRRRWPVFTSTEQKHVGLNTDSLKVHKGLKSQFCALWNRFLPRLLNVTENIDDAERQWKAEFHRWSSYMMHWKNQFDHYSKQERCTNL

Row | SMILES | inhibition [1] | IC50 (Acetylcholinesterase) | IC50 (Cholinesterase) | inhibition [2] | Ratio IC50 [3]
1 | COc1ccc2cc3[n+](cc2c1OCCCNC(=O)c1cc2ccccc2o1)CCc1cc2c(cc1-3)OCO2 | 69.1% | 1.94 µM | 1.54 µM |  | 
2 | c1ccc2oc(-c3ccc(OCCCNc4c5c(nc6ccccc46)CCCC5)cc3)cc2c1 | 62.8% | 0.058 µM | 0.156 µM |  | 
3 | COc1ccc2cc3[n+](cc2c1OCCCOc1ccc(-c2cc4ccccc4[nH]2)cc1)CCc1cc2c(cc1-3)OCO2 |  | 0.774 µM | 0.711 µM |  | 
4 | c1ccc2oc(-c3ccc(OCCCCNc4c5c(nc6ccccc46)CCCC5)cc3)nc2c1 | 33.2% | 0.947 µM | 0.207 µM |  | 
5 | COc1ccc2cc3[n+](cc2c1OC)CCc1cc2c(cc1-3)OCO2 | 36.3% |  |  |  | 
6 | c1ccc2sc(-c3ccc(OCCCCCNc4c5c(nc6ccccc46)CCCC5)cc3)nc2c1 | 40.7% | 0.04 µM | 0.171 µM |  | 
7 | c1ccc2oc(-c3ccc(OCCCCNc4c5c(nc6ccccc46)CCCC5)cc3)cc2c1 | 46.3% | 0.201 µM | 0.238 µM |  | 
8 | c1ccc2sc(-c3ccc(OCCCNc4c5c(nc6ccccc46)CCCC5)cc3)nc2c1 | 51.8% | 0.017 µM | 0.122 µM | Active | 18
9 | COc1ccc2cc3[n+](cc2c1OCCOc1ccc(-c2nc4ccccc4s2)cc1)CCc1cc2c(cc1-3)OCO2 |  | 1.64 µM | 0.175 µM |  | 
10 | COc1ccc2cc3[n+](cc2c1OCCCOc1ccc(-c2nc4ccccc4o2)cc1)CCc1cc2c(cc1-3)OCO2 |  | 2.12 µM | 0.639 µM |  | 
11 | c1ccc2sc(-c3ccc(OCCCCCCNc4c5c(nc6ccccc46)CCCC5)cc3)nc2c1 | 41.9% | 0.093 µM | 0.082 µM |  | 
12 | c1ccc2sc(-c3ccc(OCCCCNc4c5c(nc6ccccc46)CCCC5)cc3)nc2c1 | 37.8% | 0.105 µM | 0.186 µM |  | 
13 | COc1ccc2cc3[n+](cc2c1OCCOc1ccc(-c2cc4ccccc4[nH]2)cc1)CCc1cc2c(cc1-3)OCO2 |  | 1.07 µM |  |  | 
14 | COc1ccc2cc3[n+](cc2c1OCCCOc1ccc(-c2cc4ccccc4o2)cc1)CCc1cc2c(cc1-3)OCO2 | 84.6% | 1.92 µM | 0.99 µM |  | 
15 | COc1ccc2cc3[n+](cc2c1OCCOc1ccc(-c2cc4ccccc4o2)cc1)CCc1cc2c(cc1-3)OCO2 |  | 3.59 µM |  |  | 
16 | COc1ccc2cc3[n+](cc2c1OCCOc1ccc(-c2nc4ccccc4o2)cc1)CCc1cc2c(cc1-3)OCO2 |  | 3.3 µM |  |  | 
17 | COc1ccc2cc3[n+](cc2c1OCCCOc1ccc(-c2nc4ccccc4s2)cc1)CCc1cc2c(cc1-3)OCO2 | 79.2% | 1.48 µM | 0.587 µM |  | 
18 | c1ccc2oc(-c3ccc(OCCCNc4c5c(nc6ccccc46)CCCC5)cc3)nc2c1 | 57.6% | 0.475 µM | 0.352 µM |  | 
19 | COc1ccc2cc3[n+](cc2c1OCCCNC(=O)c1cc2ccccc2[nH]1)CCc1cc2c(cc1-3)OCO2 | 73.5% | 0.976 µM | 2.19 µM |  | 
